Entries after “also recorded” stand apart in the source; their conditions may differ.
Tests used:
[1] = target: T1, amyloid β protein (Homo sapiens, UniProt P05067); assay: Staining test on the brain section of patients with Alzheimer's disease; assay type: binding; conditions: 100 μM compound in 50% ethanol, 10 minutes, fluorescence microscope
T1 construct: tissue Choju Medical Institute in Fukushimura Hospital; host or cells: Paraffin-embedded post-mortem human brain sections (temporal lobe or hippocampus)
T1 sequence (P05067 672-713 limits assumed): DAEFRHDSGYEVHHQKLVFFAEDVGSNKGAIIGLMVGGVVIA
Description: The procedure of […] of the compounds of the present invention on the brain section of patients with Alzheimer's disease is explained as follows.
(1) The brain samples from the temporal lobe or hippocampus of patients pathologically definitely diagnosed as having Alzheimer's disease and normal elderly individuals were used. The samples were obtained from Choju Medical Institute in Fukushimura Hospital, our collaborative research institute, and the consent for the use for research purpose was obtained from the patients' deceased family members (Fukushimura Hospital, Ethic Committee Approval No. 20).
(2) The brain tissue embedded in the paraffin was thinly sectioned into 6 or 8 μm in thickness, extended on the slide glass, and dried. The paraffined brain section was deparaffined by washing with xylene 10 minutes×2, 100% ethanol 5 minutes×2, 90% ethanol 5 minutes, and running water 10 minutes in this order.
(3) As the pretreatment of staining by the compound of the present invention, the treatment to remove autofluorescence by lipofuscin was conducted. […]
(4) From 100 μM of the compound solution of the present invention dissolved in 50% ethanol, about 150 μl was added dropwise, and was reacted for 10 minutes. After being soaked in the tap water 5 times, it was encapsulated with Flour Save Reagent (Calbiochem) and examined with a fluorescence microscope (Nikon, Eclipse 80i). […]

[2] = Evaluation of blood-brain barrier permeability and osseous accumulation of the [18F] labeled compound in mice; assay type: in vivo, mouse; conditions: for % ID/g or ml (mean ± standard deviation), Blood plasma / % ID/g or ml (mean ± standard deviation), Bone / % ID/g or ml (mean ± standard deviation), Brain: male ICR mice, tail vein administration; for % ID/g or ml (mean ± standard deviation), Bone: bone (femur); for osseous accumulation: mice, 2, 30, 60 minutes after administration, in words; for wash-out from the brain / defluorination in vivo: mice; for wash-out from the brain: compared with [18F]BF-227; for defluorination in vivo: suggested from osseous accumulation
Description: The physiological saline solution containing [^18F] BF-837 or [^18F] THK-853 was administered into the tail vein of the male ICR mice (6-7 weeks of age), and blood-brain barrier permeability and osseous accumulation of each labeled compound were evaluated based on accumulation of radioactive in the brain tissue and the bone tissue at 2, 30, 60 minutes after.
The radiochemical purity of the used physiological saline containing the labeled compound used was 95% or greater, and specific activity was 18.5 to 148 GBq/μmol, and 1.11-2.22 MBq of the labeled compound per mouse was administered. In the evaluation of radiation accumulation, the ratio of radiation per unit weight of the evaluation tissue against the whole radiation administered (% Injected Dose/g of tissue; % ID/g) was used as the index. For measurement of the radiation, the gamma counter (1480 WIZARD, PerkinElmer, Inc.) was used. The experimental procedure was as follows. The labeled compound was administered into the caudal vein and dislocation in the cervical spine of the mice was conducted under the ether anesthesia at 2, 30, and 60 minutes after, and after promptly harvesting the blood from the heart, the whole brain (including the cerebellum, brain stem) and the femur were removed.

SMILES	binding to amyloid β protein in the brain section [1]	% ID/g or ml (mean ± standard deviation), Blood plasma ([2]; 2 minutes after)	% ID/g or ml (mean ± standard deviation), Blood plasma ([2]; 30 minutes after)	% ID/g or ml (mean ± standard deviation), Blood plasma ([2]; 60 minutes after)	% ID/g or ml (mean ± standard deviation), Bone ([2]; 2 minutes after)	% ID/g or ml (mean ± standard deviation), Bone ([2]; 30 minutes after)	% ID/g or ml (mean ± standard deviation), Bone ([2]; 60 minutes after)	% ID/g or ml (mean ± standard deviation), Brain ([2]; 2 minutes after)	% ID/g or ml (mean ± standard deviation), Brain ([2]; 30 minutes after)	% ID/g or ml (mean ± standard deviation), Brain ([2]; 60 minutes after)	osseous accumulation [2]	wash-out from the brain [2]	defluorination in vivo [2]
CNc1ccc(-c2nc3ccc(OC(CO)CF)cc3s2)cc1 (stereo not shown) [THK-837]	bound to amyloid β protein	–	–	–	–	–	–	–	–	–	–	–	–
CNc1ccc(/C=C/c2ccc(OC(CO)CF)cc2)cc1 (stereo not shown) [THK-853]	bound to amyloid β protein	–	–	–	–	–	–	–	–	–	–	–	–
CNc1ccc(/C=C/c2ccc(OC(CO)CF)cc2)cc1 (stereo not shown) [[^18F]THK-853]	–	2.81 ± 0.37 % ID/g or ml	2.11 ± 0.50 % ID/g or ml	1.59 ± 0.12 % ID/g or ml	1.64 ± 0.19 % ID/g or ml	0.98 ± 0.20 % ID/g or ml	0.96 ± 0.04 % ID/g or ml	7.56 ± 0.87 % ID/g or ml	1.31 ± 014 % ID/g or ml	0.59 ± 0.04 % ID/g or ml	not observed; also recorded: scarcely observed	clearly more excellent	not subjected to defluorination
CN(C)c1ncc(C=Cc2nc3ccc(OCCF)cc3o2)s1 [[^18F]BF-227, 2-[2-(2-dimethylaminothiazole-5-yl)ethenyl]-6-(2-fluoroethoxy)benzoxazole, reference compound]	–	2.93 ± 0.08 % ID/g or ml	2.14 ± 0.17 % ID/g or ml	2.09 ± 0.15 % ID/g or ml	1.59 ± 0.27 % ID/g or ml	4.38 ± 1.24 % ID/g or ml	7.04 ± 0.75 % ID/g or ml	6.05 ± 0.45 % ID/g or ml	1.91 ± 0.05 % ID/g or ml	1.67 ± 0.14 % ID/g or ml	time dependence marked accumulation was observed	–	easily subjected to defluorination
CNc1ccc(-c2nc3ccc(OC(CO)CF)cc3s2)cc1 (stereo not shown) [[^18F]THK-837]	–	3.30 ± 0.17 % ID/g or ml	1.73 ± 0.26 % ID/g or ml	1.35 ± 0.77 % ID/g or ml	1.80 ± 0.17 % ID/g or ml	1.27 ± 0.11 % ID/g or ml	1.64 ± 0.12 % ID/g or ml	6.54 ± 0.19 % ID/g or ml	0.94 ± 0.08 % ID/g or ml	0.43 ± 0.03 % ID/g or ml	not observed; also recorded: scarcely observed	clearly more excellent	not subjected to defluorination

Source: patent US20100272642A1, “PET PROBE HAVING AN ALKOXY GROUP SUBSTITUTED BY FLUORINE AND HYDROXY GROUP” (TOHOKU UNIVERSITY, priority 2007, published 2010)
